Source: ChEMBL document CHEMBL5257072, “Synthesis of Lathyrol PROTACs and Evaluation of Their Anti-Inflammatory Activities” (J Nat Prod, 2023)
Active and inactive are the calls of the source. The rule behind the calls is not given here.

Experiments:
[1] = test system: RAW264.7; test: Cytotoxicity against mouse RAW264.7 cells assessed as reduction in cell viability at 25 uM incubated for 24 hrs by CCK-8 method; format: functional, cell-based
[2] = test system: RAW264.7; test: Anti-inflammatory activity in mouse RAW264.7 cells assessed as inhibition of LPS-induced NO production incubated for 3 hrs followed by LPS addition and measured after 24 hrs; format: functional, cell-based
[3] = test system: RAW264.7; test: Cytotoxicity against mouse RAW264.7 cells assessed as reduction in cell viability incubated for 24 hrs by CCK-8 method; format: functional, cell-based; settings: RAW264.7, 24 h
[4] = molecular target: Transcription factor MafF (Mus musculus) (UniProt O54791); test: Induction of degradation of MAFF in mouse RAW264.7 cells at 40 uM measured after 24 hrs; format: cell-based
[5] = molecular target: Transcription factor MafF (Mus musculus) (UniProt O54791); test: Induction of degradation of MAFF in mouse RAW264.7 cells at 2.5 to 20 uM measured after 24 hrs; format: cell-based; settings: dose 2.5-20 µM
[6] = test system: RAW264.7; test: Antiinflammatory activity in LPS induced mouse RAW264.7 cells assessed as inhibition of […] phosphorylation at 5 to 20 uM by immunofluorescence analysis; format: functional, cell-based; settings: dose 5-20 µM
[7] = test system: RAW264.7; test: Induction of autophagy in LPS induced mouse RAW264.7 cells assessed as increase in LC3B-II expression at 5 to 40 uM by Western blot analysis; format: functional, cell-based; settings: dose 5-40 µM
[8] = test system: RAW264.7; test: Antiinflammatory activity in LPS induced mouse RAW264.7 cells assessed as inhibition of nuclear translocation of NF-kappaB at 20 uM by immunofluorescence analysis; format: functional, cell-based
[9] = test system: RAW264.7; test: Antiinflammatory activity in LPS induced mouse RAW264.7 cells assessed as upregulation of heme oxygenase I expression at 5 to 20 uM; format: functional, cell-based; settings: dose 5-20 µM
[10] = test system: RAW264.7; test: Antiinflammatory activity in LPS induced mouse RAW264.7 cells assessed as reduction in inducible nitric oxide synthase by immunofluorescence analysis; format: functional, cell-based; settings: dose 5-20 µM
[11] = test system: RAW264.7; test: Antiinflammatory activity in LPS induced mouse RAW264.7 cells assessed as upregulation of Nrf2 expression at 5 to 20 uM; format: functional, cell-based; settings: dose 5-20 µM
[12] = molecular target: Transcription factor MafF (Mus musculus) (UniProt O54791); test: Induction of degradation of MAFF in mouse RAW264.7 cells at 20 uM incubated for 24 hrs in presence of MG132 by Western blot analysis; format: cell-based
[13] = test system: RAW264.7; test: Antiinflammatory activity in LPS induced mouse RAW264.7 cells assessed as inhibition of ROS production by DCFH-DA staining based fluorescence assay; format: functional, cell-based; settings: dose 5-20 µM
[14] = molecular target: Transcription factor MafF (Mus musculus) (UniProt O54791); test: Induction of degradation of MAFF in mouse RAW264.7 cells at 20 uM measured after 24 hrs; format: cell-based
[15] = test system: RAW264.7; test: Antiinflammatory activity in LPS induced mouse RAW264.7 cells assessed as inhibition of NF-kappaB phosphorylation at 5 to 20 uM by immunofluorescence analysis; format: functional, cell-based; settings: dose 5-20 µM
[16] = molecular target: Transcription factor MafF (Mus musculus) (UniProt O54791); test: Induction of degradation of MAFF in mouse RAW264.7 cells assessed as reduction in MAFF expression at 20 uM measured after 24 hrs; format: cell-based
[17] = test system: RAW264.7; test: Induction of autophagy in LPS induced mouse RAW264.7 cells assessed as increase in p62 expression at 5 to 40 uM by Western blot analysis; format: functional, cell-based; settings: dose 5-40 µM

Transcription factor MafF (Mus musculus), sequence (O54791 whole entry): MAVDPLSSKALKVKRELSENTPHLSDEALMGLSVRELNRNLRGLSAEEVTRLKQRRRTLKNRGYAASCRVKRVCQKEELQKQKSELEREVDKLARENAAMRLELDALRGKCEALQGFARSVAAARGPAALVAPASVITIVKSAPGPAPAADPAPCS

SMILES	IC50 [2]	IC50 [3]	further results
C=C1CC[C@H]2[C@@H](/C=C(\C)C(=O)[C@@]3(O)C[C@H](C)[C@H](O)[C@@H]3[C@H]1OCc1cn(CCOCCOCCOCCNC(=O)CN3CCN(C(=O)N4C(c5ccc(OC)cc5OC(C)C)=N[C@H](c5ccc(Cl)cc5)[C@@H]4c4ccc(Cl)cc4)CC3=O)nn1)C2(C)C	> 20 µM		Activity [1]: Active
C=C1CC[C@H]2[C@@H](/C=C(\C)C(=O)[C@@]3(O)C[C@H](C)[C@H](O)[C@@H]3[C@H]1OCc1cn(CCCC(=O)N[C@H](C(=O)N3C[C@H](O)C[C@H]3C(=O)NCc3ccc(-c4scnc4C)cc3)C(C)(C)C)nn1)C2(C)C	> 20 µM	> 50 µM	
C=C1CC[C@H]2[C@@H](/C=C(\C)C(=O)[C@@]3(O)C[C@H](C)[C@H](O)[C@@H]3[C@H]1OCc1cn(CC(=O)N[C@H](C(=O)N3C[C@H](O)C[C@H]3C(=O)N[C@H](C)c3ccc(-c4scnc4C)cc3)C(C)(C)C)nn1)C2(C)C	> 20 µM	> 50 µM	
C=C1CC[C@H]2[C@@H](/C=C(\C)C(=O)[C@@]3(O)C[C@H](C)[C@H](O)[C@@H]3[C@H]1OCc1cn(CCCCCC(=O)N[C@H](C(=O)N3C[C@H](O)C[C@H]3C(=O)NCc3ccc(-c4scnc4C)cc3)C(C)(C)C)nn1)C2(C)C	> 20 µM		Activity [1]: Active
C=C1CC[C@H]2[C@@H](/C=C(\C)C(=O)[C@@]3(O)C[C@H](C)[C@H](O)[C@@H]3[C@H]1OCc1cn(CC(=O)N[C@H](C(=O)N3C[C@H](O)C[C@H]3C(=O)NCc3ccc(-c4scnc4C)cc3)C(C)(C)C)nn1)C2(C)C	> 20 µM	> 50 µM	
C=C1CC[C@H]2[C@@H](/C=C(\C)C(=O)[C@@]3(O)C[C@H](C)[C@H](O)[C@@H]3[C@H]1OCc1cn(CCCC(=O)N[C@H](Cc3ccccc3)[C@H](O)C(=O)N[C@@H](CC(C)C)C(=O)OC)nn1)C2(C)C	> 20 µM	> 50 µM	
C=C1CC[C@H]2[C@@H](/C=C(\C)C(=O)[C@@]3(O)C[C@H](C)[C@H](O)[C@@H]3[C@H]1OCc1cn(CCCC(=O)N[C@H](C(=O)N3C[C@H](O)C[C@H]3C(=O)N[C@H](C)c3ccc(-c4scnc4C)cc3)C(C)(C)C)nn1)C2(C)C	> 20 µM	> 50 µM	
C=C1CC[C@H]2[C@@H](/C=C(\C)C(=O)[C@@]3(O)C[C@H](C)[C@H](O)[C@@H]3[C@H]1OCc1cn(CCOCCOCCNC(=O)CN3CCN(C(=O)N4C(c5ccc(OC)cc5OC(C)C)=N[C@H](c5ccc(Cl)cc5)[C@@H]4c4ccc(Cl)cc4)CC3=O)nn1)C2(C)C	> 20 µM		Activity [1]: Active
C=C1CC[C@H]2[C@@H](/C=C(\C)C(=O)[C@@]3(O)C[C@H](C)[C@H](O)[C@@H]3[C@H]1OCc1cn(CCOCCOCCOCCOCCNC(=O)CN3CCN(C(=O)N4C(c5ccc(OC)cc5OC(C)C)=N[C@H](c5ccc(Cl)cc5)[C@@H]4c4ccc(Cl)cc4)CC3=O)nn1)C2(C)C	> 20 µM		Activity [1]: Active
C=C1CC[C@H]2[C@@H](/C=C(\C)C(=O)[C@@]3(O)C[C@H](C)[C@H](O)[C@@H]3[C@H]1OCc1cn(CCOCCOCCOCCNC(=O)[C@H](CC(C)C)NC(=O)[C@@H](O)[C@@H](Cc3ccccc3)NC(=O)OC(C)(C)C)nn1)C2(C)C	> 20 µM	> 50 µM	
C=C1CC[C@H]2[C@@H](/C=C(\C)C(=O)[C@@]3(O)C[C@H](C)[C@H](O)[C@@H]3[C@H]1OCc1cn(CC(=O)N[C@H](Cc3ccccc3)[C@H](O)C(=O)N[C@@H](CC(C)C)C(=O)OC)nn1)C2(C)C	> 20 µM	> 50 µM	
C=C1CC[C@H]2[C@@H](/C=C(\C)C(=O)[C@@]3(O)C[C@H](C)[C@H](O)[C@@H]3[C@H]1OCc1cn(CCOCCOCCOCCOCCNC(=O)[C@H](CC(C)C)NC(=O)[C@@H](O)[C@@H](Cc3ccccc3)NC(=O)OC(C)(C)C)nn1)C2(C)C	> 20 µM	> 50 µM	
C=C1CC[C@H]2[C@@H](/C=C(\C)C(=O)[C@@]3(O)C[C@H](C)[C@H](O)[C@@H]3[C@H]1OCc1cn(CCOCCOCCNC(=O)[C@H](CC(C)C)NC(=O)[C@@H](O)[C@@H](Cc3ccccc3)NC(=O)OC(C)(C)C)nn1)C2(C)C	5.3 µM	> 50 µM	Activity [4]: inactive; Activity [5]: Active; Activity [6]: Active; Activity [7]: Active; Activity [8]: Active; Activity [9]: Active; Activity [10]: Dose-Dependent Effect; Activity [11]: Active; Activity [12]: inactive; Activity [13]: Dose-Dependent Effect; Activity [14]: Active; Activity [15]: Active; Activity [16]: Active; Activity [17]: Active
C=C1CC[C@H]2[C@@H](/C=C(\C)C(=O)[C@@]3(O)C[C@H](C)[C@H](O)[C@@H]3[C@H]1OCc1cn(CCCCCC(=O)N[C@H](Cc3ccccc3)[C@H](O)C(=O)N[C@@H](CC(C)C)C(=O)OC)nn1)C2(C)C	> 20 µM	> 50 µM	
C=C1CC[C@H]2[C@@H](/C=C(\C)C(=O)[C@@]3(O)C[C@H](C)[C@H](O)[C@@H]3[C@H]1OCc1cn(CCCCCC(=O)N[C@H](C(=O)N3C[C@H](O)C[C@H]3C(=O)N[C@H](C)c3ccc(-c4scnc4C)cc3)C(C)(C)C)nn1)C2(C)C	> 20 µM	> 50 µM	
